# Test results taken from US20250388575A1, “HETEROBIFUNCTIONAL COMPOUNDS AND METHODS OF TREATING DISEASE” (Halda Therapeutics OpCo, Inc., priority 2022, published 2025).
# Like-named read-outs stand apart in the source and are kept apart here.
# How the values were obtained:
# [1] = test system: T-Rex 293 cell line SC3 cells having increased expression of androgen receptor protein; assay: Cellular growth inhibition, T-Rex 293 SC3 cells with increased androgen receptor expression (doxycycline), CellTiter-Glo; type: cell-based; conditions: T-Rex 293 SC3 cells with increased androgen receptor expression (exposed to 10 ng/mL doxycycline), 72 hours, CellTiter-Glo; read-out: GI50
# How it was run: (§1)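 SC3, a T-Rex 293 clone with doxycycline-inducible wild-type androgen receptor, was seeded in phenol red-free DMEM with 10% charcoal-dextran FBS, with or without 10 ng/mL doxycycline. Compound added at 24 h (0.5% DMSO) for 72 h at 37° C. CellTiter-Glo 2.0 luminescence; GI50 from four-parameter fit.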
# VCaP cells = assay: Cellular growth inhibition assay for VCaP cells, CellTiter-Glo; type: cell-based, human; conditions: VCaP cells, 72 hours, CellTiter-Glo, read-out: GI50
# How it was run: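 GI50 values come from four-parameter curve fits of luminescence data normalized to a zero baseline. Compound, in medium with 0.5% DMSO, was added one day after plating and left for 72 h before CellTiter-Glo 2.0 addition.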
# [2] = test system: T-Rex 293 cell line SC3 cells lacking increased expression of androgen receptor protein; assay: Cellular growth inhibition, T-Rex 293 SC3 cells lacking increased androgen receptor expression (no doxycycline), CellTiter-Glo; type: cell-based; conditions: T-Rex 293 SC3 cells lacking increased androgen receptor expression (not exposed to doxycycline), 72 hours, CellTiter-Glo; read-out: GI50
# How it was run: as §1
# BRD4-BD2 = BRD4-BD2 (Homo sapiens (Human), UniProt O60885); assay: bromoKdELECT assay for binding affinity to BRD4-BD2; conditions: 11-point 3-fold dilution
# BRD4-BD1 = BRD4-BD1 (Homo sapiens (Human), UniProt O60885); assay: bromoKdELECT assay for binding affinity to BRD4-BD1; conditions: 11-point 3-fold dilution
SMILES,GI50 (VCaP cells; Homo sapiens) [nM],Kd (BRD4-BD2) [nM],Kd (BRD4-BD1) [nM],GI50 (VCaP cells) [nM],GI50 [1] [nM],GI50 [2] [nM]
"CCS(=O)(=O)Nc1ccc(Oc2cccc(OCCOC3CCN(c4ccc(C(=O)N[C@H]5CC[C@H](Oc6ccc(C#N)c(Cl)c6)CC5)nn4)CC3)c2)c(-c2cn(C)c(=O)c3[nH]ccc23)c1 [I-1, N-[4-(3-chloro-4-cyano-phenoxy)cyclohexyl]-6-[4-[2-[3-[4-(ethylsulfonylamino)-2-(6-methyl-7-oxo-1H-pyrrolo[2,3-c]pyridin-4-yl)phenoxy]phenoxy]ethoxy]-1-piperidyl]pyridazine-3-carboxamide]",< 500,,,,< 500,< 500
CCS(=O)(=O)c1ccc(Oc2cccc(CCCOC3CC4(C3)CN(c3ccc(C(=O)N[C@H]5CC[C@H](Oc6ccc(C#N)c(Cl)c6)CC5)nn3)C4)c2F)c(-c2cn(C)c(=O)c3[nH]ccc23)c1 [I-46],< 500,500 to 2500,500 to 2500,,< 500,< 500
CCS(=O)(=O)c1ccc(Oc2cccc(CCC3CCN(c4ccc(C(=O)N[C@H]5CC[C@H](Oc6ccc(C#N)c(Cl)c6)CC5)nn4)CC3)c2F)c(-c2cn(C)c(=O)c3[nH]ccc23)c1 [I-51],< 500,50 to 500,50 to 500,,< 500,< 500
CCS(=O)(=O)c1ccc(Oc2cccc(CCCC3CCN(c4ccc(C(=O)N[C@H]5CC[C@H](Oc6ccc(C#N)c(Cl)c6)CC5)nn4)CC3)c2F)c(-c2cn(C)c(=O)c3[nH]ccc23)c1 [I-52],,50 to 500,50 to 500,< 500,< 500,< 500
Cn1cc(-c2cc(C(C)(C)O)ccc2Oc2ccc(CCC3CCN(c4ccc(C(=O)N[C@H]5CC[C@H](Oc6ccc(C#N)c(Cl)c6)CC5)nn4)CC3)cc2)c2cc[nH]c2c1=O [I-102],,> 2500,> 2500,< 500,< 500,500 to 1500

# Now from value to compound, other results behind:
GI50 (VCaP cells; Homo sapiens) [nM],Kd (BRD4-BD2) [nM],Kd (BRD4-BD1) [nM],GI50 (VCaP cells) [nM],SMILES,GI50 [1] [nM],GI50 [2] [nM]
,500 to 2500,500 to 2500,< 500,CCS(=O)(=O)c1ccc(Oc2cc(F)c(CCC3CCN(c4ccc(C(=O)N[C@H]5CC[C@H](Oc6ccc(C#N)c(Cl)c6)CC5)nn4)CC3)cc2F)c(-c2cn(C)c(=O)c3[nH]ccc23)c1 [I-59],< 500,< 500
< 500,500 to 2500,500 to 2500,,"Cn1cc(-c2cc(C(C)(C)O)ccc2Oc2ccc(OC3CN(c4ccc(C(=O)N[C@H]5CC[C@H](Oc6ccc(C#N)c(Cl)c6)CC5)nn4)C3)cc2)c2cc[nH]c2c1=O [I-95, N-[4-(3-chloro-4-cyano-phenoxy)cyclohexyl]-6-[3-[4-[4-(1-hydroxy-1-methyl-ethyl)-2-(6-methyl-7-oxo-1H-pyrrolo[2,3-c]pyridin-4-yl)phenoxy]phenoxy]azetidin-1-yl]pyridazine-3-carboxamide]",< 500,< 500
< 500,500 to 2500,500 to 2500,,Cn1cc(-c2cc(C(C)(C)O)ccc2Oc2c(F)cc(CCOC3CCN(c4ccc(C(=O)N[C@H]5CC[C@H](Oc6ccc(C#N)c(Cl)c6)CC5)nn4)CC3)cc2F)c2cc[nH]c2c1=O [I-109],< 500,< 500
< 500,50 to 500,50 to 500,,"Cn1cc(-c2cc(C(C)(C)O)ccc2O[C@H]2C[C@H](N(C)CC3CCN(c4ccc(C(=O)N[C@H]5CC[C@H](Oc6ccc(C#N)c(Cl)c6)CC5)nn4)CC3)C2)c2cc[nH]c2c1=O [I-158, N-((1r,4r)-4-(3-chloro-4-cyanophenoxy)cyclohexyl)-6-(4-((((1r,3r)-3-(4-(2-hydroxypropan-2-yl)-2-(6-methyl-7-oxo-6,7-dihydro-1H-pyrrolo[2,3-c]pyridin-4-yl)phenoxy)cyclobutyl)(methyl)amino)methyl)piperidin-1-yl)pyridazine-3-carboxamide]",< 500,< 500
